Drawing on patent US7803801B2, “Aminopyridine compounds having Syk inhibitory activity” (Japan Tobacco, Inc., priority 2005, dated 2010), this text covers IC50 for 13 compounds.

Where only a bound is given, the exact number is not on record here.

Experiment [1] has as its target GST-Syk Full Protein (human) (Homo sapiens, UniProt P43405). The experiment is described as follows: Syk kinase inhibition test (HTRF method). Type of experiment: biochemical. As to conditions: HTRF, 100 μM ATP, 30 min room temperature, average; read-out: sykHTRF ave IC50. The essentials:
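Human GST-Syk full-length (6.4 nM) phosphorylated biotin-EDPDYEWPSA-NH2 (250 nM) with 100 μM ATP in HEPES pH 7.0/MgCl2 buffer, 2% DMSO, 30 min at room temperature. EDTA stop, then HTRF detection (streptavidin-XL665, Eu anti-phosphotyrosine) after 1 h; 665/620 ratio read.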

Experiment [2] relates to cultured human mast cells. The experiment is described as follows: Degranulation inhibition test using cultured human mast cells (IgE cross-linking, β-Hexosaminidase release). Type of experiment: cell-based. As to conditions: Mast cell; cultured human mast cells, anti-hIgE stimulation, β-Hexosaminidase index, average; read-out: human degranulation ave. IC50. As to the method: Degranulation Inhibition Test Using Cultured Human Mast Cells
(1) Separation of Hematopoietic Stem Cells;
After 10 to 60 mL of umbilical cord blood collected with heparin was diluted with an equivalent amount of buffer (0.5% BSA, 2 mM EDTA/PBS-), it was superposed on Ficoll-Paque (Amersham Pharmacia Biotech) (Ficoll/Blood (1:2)) and mononuclear leukocyte fraction was collected by centrifuging it at 400 G (1350 rpm) 4° C. for 30 minutes. After centrifugal washing (1500 rpm, 5 min, 4° C.×3) with buffer, the number of cells was counted and 0.1 mL of CD34 Progenitor Cell Isolation Kit (Miltenyi Biotec), Reagent A1 (Fc blocking) was added for 1×10^8 cells. After agitation, 0.1 mL of Reagent A2 (CD34 antibody-hapten) was added (final volume 0.5 mL/1×10^8 cells) and incubated at 9° C. for further 15 minutes after agitation. After centrifugal washing (1500 rpm, 5 min, 4° C.×3), it was resuspeded in a buffer (0.4 mL) and 0.1 mL of Reagent B (anti hapten antibody-microbeads) was added and agitated (final volume 0.5 mL/1×10^8 cells) and incubated at 9° C. for further 15 minutes. After centrifugal washing (1500 rpm, 5 min, 4° C.×2), it was resuspeded in a buffer (0.5 mL) and loaded on CS column (Miltenyi Biotec) set in MACS (MAgnetic Cell Sorting system; Miltenyi Biotec, Daiichi Pure Chemicals) and washed with 30 mL of buffer to remove CD34^− cells. The column was separated from MACS and eluted with 30 mL of buffer and CD34^+ cells bound to the column were collected and used as a hematopoietic stem cell population.
(2) Acquisition of Human Mast Cells by Long-Term Culturing of Hematopoietic Stem Cells;
The CD34^+ cells separated in (1) were resuspended in Iscove's Modified Dulbecco's Medium (IMDM, Gibco) containing human (rh)SCF (1 μg/mL, Peprotech), rhIL-6 (0.5 μg/mL, Peprotech), rhIL-3 (10 ng/mL, Peprotech), 1% Insulin-Transferrin (Gibco), 5×10^−5M 2-ME (Gibco), 0.1% BSA (Sigma) in a density of 1×10^6 cells/ml and disseminated on 24-well culture plate with a dose of 0.1 mL/well and 0.9 ml of IMDM (Methocult SF^BIT StemCell technology) containing 0.9% methyl cellulose was added and culturing was started. The above culture medium (excluding methyl cellulose) was added in a week and after that 100 μL/well of the above culture medium (further excluding IL-3) was added at an interval of every once a week so that cells were diluted to maintain 10^5 cells/mL/well order and cultured more than about 8 weeks and thereby human culture mast cells were obtained.
(3) Expression Enhancement of FcεRI and Inhibition Test IgE Cross-Linking Stimulating Degranulation;
rhIL-4 (final concentration 1 ng/mL, R & D) and Homo sapiens(h) IgE (final concentration 0.5 μg/mL, CHEMICON) were added to the obtained human culture mast cells, and they were incubated for 5 days to enhance the expression of FcεRI. After incubation, cells were collected and, after centrifugal washing (IMDM), they were disseminated on 96-well culture plate in 5×10^4 cells/80 μL/well.
10 μL of a compound 10-fold diluted with IMDM after dissolved in DMSO (DMSO final concentration 0.1%) was added and reacted at 37° C. for 10 minutes. Further, 10 μL of anti-hIgE Ab (CHEMICON) adjusted to 100 μg/mL (final concentration 10 μg/mL) was added and degranulation was caused by being stimulated at 37° C. for 30 minutes. After centrifugation, 50 μL/well of the supernatant was collected and stored at −40° C. untill the quantity of degranulation was measured. The measurement of quantity of degranulation was performed using enzymatic activity of β-Hexosaminidase contained in the granulates as an index. That is, an equivalent amount of p-nitrophenyl-N-acetyl-β-D-glucosaminide (1 mM) (containing 0.1% Triton X-100) which is a substrate of β-Hexosaminidase was added to 50 μL of the culture filtrate, and after reacted at 37° C. for 2 hours, the reaction was terminated by using 100 μL of Carbonate buffer (0.1M, pH 10). […]

Usually IC50 stands for the concentration needed to halve the response being measured. Consider `Cc1ccnc(Nc2cccc(-c3cnc(N4CCN(C)C(=O)C4)s3)n2)c1` [Compound A-1, 1-methyl-4-{5-[6-(4-methylpyridin-2-ylamino)pyridin-2-yl]thiazol-2-yl}piperazin-2-one], for which the IC50 in experiment [1] and in experiment [2] was 100 to 1000 nM each time.
On to `Cc1ccnc(Nc2cccc(-c3cnc(N4CCC(C(=O)O)CC4)s3)n2)c1` [Compound A-2, 1-{5-[6-(4-methylpyridin-2-ylamino)pyridin-2-yl]thiazol-2-yl}piperidine-4-carboxylic acid], for which the IC50 in experiment [1] was < 100 nM; in experiment [2], > 1000 nM.
For the compound `Cc1ccnc(Nc2cccc(-c3cnc(N4CCC(C(N)=O)CC4)s3)n2)c1` [Compound A-3, 1-{5-[6-(4-methylpyridin-2-ylamino)pyridin-2-yl]thiazol-2-yl}piperidine-4-carboxamide], the half-maximal inhibitory concentration (IC50) is < 100 nM in experiment [1] and 100 to 1000 nM in experiment [2].
Turning to `CNC(=O)C1CCN(c2ncc(-c3cccc(Nc4cc(C)ccn4)n3)s2)CC1` [Compound A-4, N-methyl-1-{5-[6-(4-methylpyridin-2-ylamino)pyridin-2-yl]thiazol-2-yl}piperidine-4-carboxamide], the 50% inhibitory concentration (IC50) is < 100 nM in experiment [1] and > 1000 nM in experiment [2].
For `Cc1ccnc(Nc2cccc(-c3cnc(N4CCC(C(=O)NCCO)CC4)s3)n2)c1` [Compound A-5, N-(2-hydroxyethyl)-1-{5-[6-(4-methylpyridin-2-ylamino)pyridin-2-yl]thiazol-2-yl}piperidine-4-carboxamide], the IC50 in experiment [1] was < 100 nM; in experiment [2], 100 to 1000 nM.
For `COC(=O)[C@H]1CC[C@H](c2ncc(-c3cccc(Nc4cc(C)ccn4)n3)s2)CC1` [Compound A-6, trans-4-{5-[6-(4-methylpyridin-2-ylamino)pyridin-2-yl]thiazol-2-yl}cyclohexanecarboxylic acid methyl ester], the half-inhibitory concentration (IC50) in experiment [1] and in experiment [2] was 100 to 1000 nM throughout.
As for `Cc1ccnc(Nc2cccc(-c3cnc([C@H]4CC[C@H](C(=O)O)CC4)s3)n2)c1` [Compound A-7, trans-4-{5-[6-(4-methylpyridin-2-ylamino)pyridin-2-yl]thiazol-2-yl}cyclohexanecarboxylic acid], the IC50 in experiment [1] was < 100 nM; in experiment [2], > 1000 nM.
For `Cc1ccnc(Nc2cccc(-c3cnc([C@H]4CC[C@H](C(=O)N5CCC(O)CC5)CC4)s3)n2)c1` [Compound A-8, (4-hydroxypiperidin-1-yl)-(trans-4-{5-[6-(4-methylpyridin-2-ylamino)pyridin-2-yl]thiazol-2-yl}cyclohexyl)methanone], the IC50 in experiment [1] and in experiment [2] was 100 to 1000 nM in each case.
Turning to `Cc1ccnc(Nc2cccc(-c3cnc([C@H](C)N)s3)n2)c1` [Compound A-9, N—((S)-1-{5-[6-(4-methylpyridin-2-ylamino)pyridin-2-yl]thiazol-2-yl}ethyl)amine], the IC50 in experiment [1] and in experiment [2] was 100 to 1000 nM in each case.
Regarding `CC(=O)N[C@@H](C)c1ncc(-c2cccc(Nc3cc(C)ccn3)n2)s1` [Compound A-10, N—((S)-1-{5-[6-(4-methylpyridin-2-ylamino)pyridin-2-yl]thiazol-2-yl}ethyl)acetamide], the IC50 in experiment [1] and in experiment [2] was 100 to 1000 nM throughout.
Take `Cc1ccnc(Nc2cccc(-c3cnc([C@@H]4COC(=O)N4C)s3)n2)c1` [Compound A-11]: the IC50 in experiment [1] and in experiment [2] was 100 to 1000 nM in each case.
In the case of `Cc1ccnc(Nc2cccc(-c3cnc([C@@H]4COC(C)(C)N4C(=O)OC(C)(C)C)s3)n2)c1` [Compound A-12, (S)-2,2-dimethyl-4-{5-[6-(4-methylpyridin-2-ylamino)pyridin-2-yl]thiazol-2-yl}oxazolidine-3-carboxylic acid tert-butyl ester], the IC50 in experiment [1] and in experiment [2] was > 1000 nM each time.
Regarding `Cc1ccnc(Nc2cccc(-c3cnc([C@@H](N)CO)s3)n2)c1` [Compound A-13, (S)-2-amino-2-{5-[6-(4-methylpyridin-2-ylamino)pyridin-2-yl]thiazol-2-yl}ethanol], the IC50 in experiment [1] and in experiment [2] was 100 to 1000 nM in each case.
